Results published in the supplement of paper PMC11451515.

Tested on: NOMO1
Experiment: cell viability relative to DMSO control; higher = less cytotoxic
Conditions: 48 h
In short: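 NOMO1 or SEM cells were plated at 500 cells/well and P12-Ichikawa cells at 1000 cells/well in 1536-well plates (5 μl), after each leukemia line had been adapted for at least four passages in each medium. Pin dosing delivered library compounds in DMSO at 11 threefold concentrations, 47 μM to 0.79 nM. CellTiter-Glo One luminescence was read after 48 h at 37°C. Viability is reported as a per-plate percentage of DMSO wells, with cell-free wells as background.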

[1] = HPLM + 10% dialyzed FBS, 0.000781 µM
[2] = HPLM + 10% dialyzed FBS, 0.00234 µM
[3] = HPLM + 10% dialyzed FBS, 0.00702 µM
[4] = HPLM + 10% dialyzed FBS, 0.0211 µM
[5] = HPLM + 10% dialyzed FBS, 0.0632 µM
[6] = HPLM + 10% dialyzed FBS, 0.19 µM
[7] = HPLM + 10% dialyzed FBS, 0.569 µM
[8] = HPLM + 10% dialyzed FBS, 1.71 µM
[9] = HPLM + 10% dialyzed FBS, 5.12 µM
[10] = HPLM + 10% dialyzed FBS, 15.4 µM
[11] = HPLM + 10% dialyzed FBS, 46.1 µM
[12] = RPMI 5 mM glucose + 10% FBS, 0.000781 µM
[13] = RPMI 5 mM glucose + 10% FBS, 0.00234 µM
[14] = RPMI 5 mM glucose + 10% FBS, 0.00702 µM
[15] = RPMI 5 mM glucose + 10% FBS, 0.0211 µM
[16] = RPMI 5 mM glucose + 10% FBS, 0.0632 µM
[17] = RPMI 5 mM glucose + 10% FBS, 0.19 µM
[18] = RPMI 5 mM glucose + 10% FBS, 0.569 µM
[19] = RPMI 5 mM glucose + 10% FBS, 1.71 µM
[20] = RPMI 5 mM glucose + 10% FBS, 5.12 µM
[21] = RPMI 5 mM glucose + 10% FBS, 15.4 µM
[22] = RPMI 5 mM glucose + 10% FBS, 46.1 µM
[23] = RPMI 5 mM glucose + 10% dialyzed FBS, 0.000781 µM
[24] = RPMI 5 mM glucose + 10% dialyzed FBS, 0.00234 µM
[25] = RPMI 5 mM glucose + 10% dialyzed FBS, 0.00702 µM
[26] = RPMI 5 mM glucose + 10% dialyzed FBS, 0.0211 µM
[27] = RPMI 5 mM glucose + 10% dialyzed FBS, 0.0632 µM
[28] = RPMI 5 mM glucose + 10% dialyzed FBS, 0.19 µM
[29] = RPMI 5 mM glucose + 10% dialyzed FBS, 0.569 µM
[30] = RPMI 5 mM glucose + 10% dialyzed FBS, 1.71 µM
[31] = RPMI 5 mM glucose + 10% dialyzed FBS, 5.12 µM
[32] = RPMI 5 mM glucose + 10% dialyzed FBS, 15.4 µM
[33] = RPMI 5 mM glucose + 10% dialyzed FBS, 46.1 µM

| SMILES | cell viability [1] | cell viability [2] | cell viability [3] | cell viability [4] | cell viability [5] | cell viability [6] | cell viability [7] | cell viability [8] | cell viability [9] | cell viability [10] | cell viability [11] | cell viability [12] | cell viability [13] | cell viability [14] | cell viability [15] | cell viability [16] | cell viability [17] | cell viability [18] | cell viability [19] | cell viability [20] | cell viability [21] | cell viability [22] | cell viability [23] | cell viability [24] | cell viability [25] | cell viability [26] | cell viability [27] | cell viability [28] | cell viability [29] | cell viability [30] | cell viability [31] | cell viability [32] | cell viability [33] |
| --- | --- | --- | --- | --- | --- | --- | --- | --- | --- | --- | --- | --- | --- | --- | --- | --- | --- | --- | --- | --- | --- | --- | --- | --- | --- | --- | --- | --- | --- | --- | --- | --- | --- |
| Cc1ccc(-c2ncn(-c3ccc(Nc4nccc(-c5cccc(N6CCOCC6)c5)n4)cc3)n2)cn1 | 94.8% | 90.9% | 96.8% | 109% | 105% | 87.8% | 13.6% | 10.2% | 7.32% | 8.09% | 5.6% | 88.4% | 40% | 80.9% | 94.6% | 86.4% | 87.4% | 16.4% | 8.16% | 7.21% | 5.58% | 6.57% | 87.7% | 94.2% | 88.9% | 97.8% | 94.9% | 89.2% | 20.3% | 8.8% | 8.22% | 7.85% | 5.33% |
| CCN1C[C@]2(OC(=O)c3ccccc3NC(C)=O)CC[C@H](OC)[C@@]34[C@@H]2C[C@@H]([C@@H]13)[C@@]1(O)C[C@H](OC)[C@H]2C[C@@H]4[C@]1(O)[C@H]2OC | 106% | 101% | 118% | 101% | 108% | 88.3% | 118% | 103% | 112% | 93.2% | 114% | 96.3% | 99.4% | 101% | 106% | 103% | 91.6% | 118% | 107% | 95.1% | 101% | 107% | 98% | 104% | 120% | 99.1% | 105% | 105% | 109% | 107% | 111% | 106% | 95.9% |
| O=C1N\2CCC3=C([NH]C4=C3C=CC=C4)C2=N/C5=CC=CC=C15 | 111% | 122% | 130% | 134% | 155% | 147% | 130% | 129% | 155% | 130% | 112% | 144% | 124% | 125% | 128% | 132% | 124% | 169% | 136% | 139% | 140% | 131% | 115% | 121% | 129% | 130% | 130% | 124% | 122% | 140% | 135% | 141% | 124% |
| C#C[C@]1(O)CC[C@H]2[C@@H]3CCc4cc(OC)ccc4[C@H]3CC[C@@]21C | 108% | 123% | 114% | 118% | 117% | 114% | 107% | 105% | 109% | 102% | 95.4% | 117% | 124% | 108% | 110% | 123% | 123% | 117% | 108% | 106% | 104% | 93.5% | 115% | 107% | 106% | 124% | 120% | 108% | 103% | 109% | 104% | 103% | 107% |
| CC(=O)[C@H]1CC[C@H]2[C@@H]3CCC4=CC(=O)CC[C@]4(C)[C@H]3CC[C@]12C | 110% | 122% | 140% | 136% | 127% | 120% | 123% | 133% | 139% | 115% | 147% | 116% | 109% | 122% | 120% | 116% | 111% | 114% | 123% | 128% | 120% | 133% | 114% | 121% | 134% | 134% | 127% | 135% | 136% | 141% | 158% | 140% | 150% |
| CC(C)c1ccccc1Cc1cc(C(=O)Nc2ccc([S+](=O)([O-])c3ccccc3C(C)(C)C)cc2)c(O)c(O)c1O | – | – | – | – | – | – | – | – | – | – | – | 102% | 116% | 101% | 102% | 114% | 117% | 102% | 109% | 105% | 97.4% | 87.7% | 103% | 117% | 111% | 115% | 108% | 118% | 104% | 118% | 96.8% | 97% | 104% |
| CN(C)CCCNC(=O)c1ccc(-c2cc(O)c3ncccc3c2)cc1 | 113% | 110% | 109% | 107% | 105% | 85.9% | 117% | 98.8% | 114% | 86.7% | 60.1% | 89.1% | 89.5% | 96.2% | 99.5% | 103% | 84% | 86.1% | 87.7% | 97.2% | 85.9% | 82.4% | 96.3% | 94.6% | 112% | 98.1% | 102% | 112% | 94.2% | 101% | 106% | 91.1% | 62.8% |
